Earlier results in patent US20130071904A1, “ACETATE-RESISTANT YEAST STRAIN FOR THE PRODUCTION OF A FERMENTATION PRODUCT” (priority 2010, published 2013).

Test system: Saccharomyces cells
Settings: Pons et al. 1984

## CC(=O)O [Acetate]
  effect on growth of Saccharomyces cells: inhibits the growth
